From a compilation of properties of binary mixtures (doi:10.1021/acs.jced.1c00023)

Experiment: xn = mol fraction of the nth substance listed
Settings: 101.3 kPa

Oc1cccc(O)c1O + CCC[N+](CCC)(CCC)CCC.[Br-]
x2 = 0.5
Settings | electrical conductivity [S/m] | speed of sound [m/s] | viscosity [mPa·s]
298.15 K | 0.0031 | 1855.2 | 25000
318.15 K | 0.0259 | 1704.1 | 4800
323.15 K | 0.04 | 1674.1 | 3500
328.15 K | 0.0703 | 1652.9 | 2550

Oc1cccc(O)c1O + CCCCCCCCCCCC[N+](C)(C)C.[Br-]
x2 = 0.333
Settings | electrical conductivity [S/m] | speed of sound [m/s] | viscosity [mPa·s]
293.15 K | 0.0047 | 1614.6 | 7500
298.15 K | 0.0082 | 1592.1 | 5650
303.15 K | 0.0139 | 1572.5 | 3900
308.15 K | 0.0234 | 1554.9 | 2300
313.15 K | 0.0364 | 1538.8 | 1500
318.15 K | 0.0539 | 1523.4 | 1000
323.15 K | 0.0773 | 1508.7 | 750
328.15 K | 0.105 | 1494.3 | 550
